Experiments:
Assay in all cases: NOS inhibition, L-Arg to L-Cit conversion by HPLC with fluorescence detection
Type in all cases: biochemical
bovine eNOS = molecular target: T1, bovine eNOS (Bos taurus, UniProt P29473); conditions: at 10 μM
T1 construct: purchased Cayman Chemicals (Ann Arbor, Michigan, USA)
Protocol: (§1) The amidoxime 2 was evaluated for its in vitro NOS inhibitory activity, by measuring the conversion of L‐Arg to L‐Cit, using a validated HPLC method with fluorescence detection, as previously reported.[ ^39 , ^40 , ^41 ] The human nNOS and iNOS inhibition percent were calculated at 1 μM, while bovine eNOS inhibition was evaluated at 10 μM in order to have an assessment of compound selectivity toward eNOS. Considering the highly conserved primary sequence (>90 %) between the human and bovine eNOS, this latter extremely resembles the human isozyme. In particular, there is only one amino acid variation in a hydrophobic pocket that is on the outside of the heme active site. Therefore the different source of eNOS is usually well accepted and should not affect the inhibitor evaluation. ^[42]
(§2) Recombinant human iNOS and nNOS, were purchased from Enzo Life Sciences, Inc. (New York, USA), while bovine recombinant eNOS was purchased from Cayman Chemicals (Ann Arbor, Michigan, USA). HPLC analyses were performed using a Waters system composed of a P600 model pump, a 2475 multi‐fluorescence detector, and a 7725i model sample injector (Rheodyne, Cotati, CA, USA) equipped with a 5 μL loop. The column was a XTerra MS C8 (250×4.6 mm i.d., […]; Waters). A column thermostat oven module Igloo‐Cil (Cil Cluzeau Info Labo, France) was used. Chromatograms were recorded on a Fujitsu Siemens Esprimo computer and data were processed by the Empower Pro software (Waters). The appropriate mobile phase was prepared daily, filtered through a 0.45 μm WTP membrane (Whatman, Maidstone, UK), sonicated and degassed before use. Column temperature was kept constant at 20 °C. All assays were performed in triplicate.
(§3) Enzymes were diluted in 2‐[4‐(2‐hydroxyethyl)piperazin‐1‐yl]ethanesulfonic acid (HEPES) buffer (pH 7.4) to obtain iNOS and nNOS 2.5 μg/mL stock solutions, and eNOS 300 μg/mL stock solution. To measure iNOS activity, 10 μL of iNOS stock solution were added to 80 μL of HEPES buffer at pH 7.4, containing 0.1 mM CaCl2, 1 mM D,L‐dithiothreitol (DTT), 0.5 mg/mL bovine serum albumin (BSA), 10 μM flavin mononucleotide (FMN), 10 μM flavin adenine dinucleotide (FAD), 30 μM tetrahydrobiopterin (BH4), 10 μg/mL calmodulin (CaM) and 10 μM L‐Arg. To measure eNOS and nNOS activities, 25 μL of enzyme stock solution were added to 75 μL of HEPES buffer pH 7.4, containing 2 mM CaCl2, 1 mM DTT, 0.5 mg/mL BSA, 10 μM FMN, 10 μM FAD, 30 μM BH4, 10 μg/mL CaM and 10 μM L‐Arg. Then, 10 μL of a 10 μM (iNOS and nNOS assay) or 100 μM (eNOS assay) solution of the test compound was added to the enzyme assay solution, followed by pre‐incubation of 15 min at 37 °C. The reaction was initiated by the addition of 10 μL of nicotinamide adenine dinucleotide phosphate (NADPH) 7.5 mM (iNOS) or 10 mM (eNOS and nNOS), carried out at 37 °C for 20 min, and stopped by adding 500 μL of ice‐cold CH3CN. The mixture was brought to dryness under vacuum and eventually stored at −20 °C, before the fluorescence derivatization. The o‐phthalaldehyde‐N‐acetylcysteine (OPA/NAC) reagent for fluorescence derivatization was prepared with the molar ratios of 1 : 3, reacting 5 mL of methanolic OPA solution and 20 mL of 0.2 M borate buffer containing 0.1 g of NAC for 90 min to final pH 9.3±0.05. The OPA/NAC solution was stored at 4 °C and saved for no longer than seven days. […] The fluorescence reaction is realized stirring 190 μL of supernatant and 60 μL of OPA/NAC solution for 5 min. […]

human iNOS = molecular target: T2, human iNOS (Homo sapiens, UniProt P35228); conditions: at 1 μM
T2 construct: purchased Enzo Life Sciences, Inc. (New York, USA)
Protocol: as §1, §2, §3

human nNOS = molecular target: T3, human nNOS (Homo sapiens, UniProt P29475); conditions: read-out: nNOS enzymatic inhibition
T3 construct: purchased Enzo Life Sciences, Inc. (New York, USA)
Protocol: as §1, §2, §3

eNOS inhibition (in words) (bovine eNOS): not able to inhibit
eNOS inhibition (in words) (bovine eNOS; listed as amidoxime): inactivity
iNOS inhibition (in words) (human iNOS): not able to inhibit
iNOS inhibition (in words) (human iNOS; listed as amidoxime): inactivity
inhibition at 1 µM (human nNOS): 53%
SMILES: C/C(=N\O)NC(c1ccccc1)c1ccccc1 [Compound 2, (1E)‐N‐(diphenylmethyl)‐N′‐hydroxyethanimidamide]
